These results are taken from patent US5373090A, “Aprotinin analogues and a process for the production thereof” (Novo Nordisk A/S, priority 1988, dated 1994).

The subject of one test is collagenase. The note with it: known analogues, as claimed in prior art; cited from earlier work.
In another test the target is T1, granulocyte elastase (Homo sapiens, UniProt P08246).
T1 sequence (P08246 30-267): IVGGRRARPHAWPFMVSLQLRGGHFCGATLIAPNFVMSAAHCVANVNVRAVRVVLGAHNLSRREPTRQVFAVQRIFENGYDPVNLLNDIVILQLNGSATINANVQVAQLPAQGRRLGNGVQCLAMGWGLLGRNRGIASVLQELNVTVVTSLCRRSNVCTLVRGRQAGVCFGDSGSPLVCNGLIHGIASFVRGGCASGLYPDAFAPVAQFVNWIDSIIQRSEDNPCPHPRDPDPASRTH
As to conditions: known analogues, as claimed in prior art; cited from earlier work.

A further test concerns the target T2, trypsin (Bos taurus, UniProt P00760).
T2 construct: gene PRSS1
T2 sequence (P00760 24-246): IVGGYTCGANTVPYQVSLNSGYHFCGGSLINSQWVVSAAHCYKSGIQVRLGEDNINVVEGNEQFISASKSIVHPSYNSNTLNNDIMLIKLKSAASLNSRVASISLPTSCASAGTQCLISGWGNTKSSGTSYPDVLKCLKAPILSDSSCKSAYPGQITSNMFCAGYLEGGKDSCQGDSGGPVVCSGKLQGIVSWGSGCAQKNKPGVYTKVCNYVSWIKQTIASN
As to conditions: known analogues, as claimed in prior art; cited from earlier work.

In the next test the test system is kallikrein. The note with it: known analogues, as claimed in prior art; cited from earlier work.
A further test addresses T3, Human plasma kallikrein (Homo sapiens, UniProt P03952).
T3 construct: purchased Sigma (St. Louis, Mo.)
Description: Inhibition of amidolytic activity of human plasma kallikrein (substrate S2302). It counts as biochemical. How it is done:
(§1) The concentration was calculated using E280 nm=8.3 and Mr =6500. Human plasma kallikrein was obtained from Sigma (St. Louis, Mo.), bovine factor Xa was purified according to (H. Nobukazu et al. J.Biochem. 97 (1985)1347-1355), human factor IIa (thrombin) was a gift from Dr. W. Lawson (New York State Dept. of Health, Albany, N.Y.), recombinant human factor VIIa was from NOVO (Bagsvaerd, Denmark) and recombinant human protein Ca was from ZymoGenetics, Inc. (Seattle, Wash.). Substrate S 2302 (H-D-Pro-Phe-Arg-p-nitroanilide) substrate S2238 (H-D-Phe-Pip-Arg-p-nitroanilide) and substrate S2366 (Glu-Pro-Arg-p-nitroanilide) were from Kabi (Stockholm, Sweden). Substrate FXa-1 (methoxycarbonyl DCH-Gly-Arg-p-nitroanilide) was from NycoMed (Oslo, Norway). The experiments were performed in 100 mM NaCl, 50 mM Tris-HCl 0.01% Tween80, pH 7.4 at 25° C.
Substrate S 2302 (0.6 mM) was added to a final volume of 300 μand the rate of nitroaniline generation was measured at 405 nm by means of a Micro ELISA® Autoreader MR 580 from Dynatech Laboratories. The rate is proportional to the concentration of free enzyme.

The target of test [1] is T4, recombinant human protein Ca (Homo sapiens, UniProt P04070).
T4 construct: purchased ZymoGenetics, Inc. (Seattle, Wash.)
T4 sequence (P04070 212-461 limits assumed): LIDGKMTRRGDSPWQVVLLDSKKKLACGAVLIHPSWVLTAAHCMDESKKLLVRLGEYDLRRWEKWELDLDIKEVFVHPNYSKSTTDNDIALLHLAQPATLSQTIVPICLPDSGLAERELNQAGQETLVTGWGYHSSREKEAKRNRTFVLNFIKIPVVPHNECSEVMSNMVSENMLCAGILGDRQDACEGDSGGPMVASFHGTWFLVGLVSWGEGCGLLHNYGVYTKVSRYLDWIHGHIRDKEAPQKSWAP
T4 sequence (P04070 43-197 partner limits assumed): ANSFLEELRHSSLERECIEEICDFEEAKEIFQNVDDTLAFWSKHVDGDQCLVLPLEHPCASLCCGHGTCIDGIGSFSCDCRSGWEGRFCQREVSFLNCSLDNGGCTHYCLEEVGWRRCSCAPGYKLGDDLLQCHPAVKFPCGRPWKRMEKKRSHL
Kind of test: Inhibition of amidolytic activity of protein Ca (substrate S2366). It counts as biochemical. As to conditions: graphical Dixon method, read-out: Ki, amidolytic activity, Prot. Ca. Here is the method: as §1
(§2) Substrate S 2302 (0.6 mM) was added to a final volume of 300 μand the rate of nitroaniline generation was measured at 405 nm by means of a Micro ELISA® Autoreader MR 580 from Dynatech Laboratories. […]
(§3) The analogues were also tested for inhibition of the amidolytic activity of the serine proteases: bovine factor Xa, human factor IIa, human recombinant factor VIIa and human recombinant protein Ca. […] Finally the analogues were analysed for an effect on the coagulation factors of human plasma by means of two clotting tests. […]

The target in test [2] is T5, human factor IIa (thrombin) (Homo sapiens, UniProt P00734).
T5 construct: human factor IIa (thrombin) was a gift from Dr. W. Lawson; gift from Dr. W. Lawson (New York State Dept. of Health, Albany, N.Y.)
Description: Inhibition of amidolytic activity of factor IIa (substrate S2238). The test is classed as biochemical. The note with it: 1.0 μM aprotinin analogue. How it is done: as §1, §2, §3

For test [3], the target named is T6, recombinant human factor VIIa (Homo sapiens, UniProt P08709).
T6 construct: recombinant human factor VIIa was from NOVO (Bagsvaerd, Denmark)
T6 sequence (P08709 213-466 limits assumed): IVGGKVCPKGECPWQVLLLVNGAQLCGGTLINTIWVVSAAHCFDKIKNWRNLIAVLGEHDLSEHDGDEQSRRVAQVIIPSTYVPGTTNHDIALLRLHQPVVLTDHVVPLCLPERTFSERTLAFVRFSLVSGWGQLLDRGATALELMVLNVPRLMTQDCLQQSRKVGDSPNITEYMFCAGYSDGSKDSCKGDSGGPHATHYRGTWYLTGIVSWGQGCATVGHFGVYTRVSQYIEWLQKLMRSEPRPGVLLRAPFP
T6 sequence (P08709 61-212 partner limits assumed): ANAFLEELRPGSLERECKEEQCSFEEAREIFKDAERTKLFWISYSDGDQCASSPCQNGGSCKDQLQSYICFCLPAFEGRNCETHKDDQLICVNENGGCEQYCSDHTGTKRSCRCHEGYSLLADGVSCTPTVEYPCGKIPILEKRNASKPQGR
Kind of test: Inhibition of amidolytic activity of factor VIIa. It counts as biochemical. As to conditions: 1.0 μM aprotinin analogue. Here is the method: as §1, §2, §3

A further test concerns the target T7, bovine factor Xa (Bos taurus, UniProt P00743).
T7 construct: bovine factor Xa was purified according to (H. Nobukazu et al. J.Biochem. 97 (1985)1347-1355); from tissue; bovine plasma inferred
Description: Inhibition of amidolytic activity of factor Xa (substrate FXa-1). As to conditions: 1.0 μM aprotinin analogue; substrate FXa1. It counts as biochemical. How it is done: as §1, §2, §3

Test [4] concerns coagulation factors of human plasma. Description: Clotting test, prothrombin time (PTT). The test is classed as biochemical. As to conditions: 1.0 μM aprotinin analogue. How it is done:
(§4) The analogues were also tested for inhibition of the amidolytic activity of the serine proteases: bovine factor Xa, human factor IIa, human recombinant factor VIIa and human recombinant protein Ca. The experiments were performed essentially as described for plasma kallikrein only appropriate substrates were used. Finally the analogues were analysed for an effect on the coagulation factors of human plasma by means of two clotting tests. These tests, the prothrombin time (PTT) and the activated thromboplastin time (APTT) were performed with General Diagnostics® reagents from Organon (Durham, N.C.) according to the directions given by the manufacturer.

The test system is the same in test [5]. Kind of test: Clotting test, activated thromboplastin time (APTT). It counts as biochemical. As to conditions: 1.0 μM aprotinin analogue. Here is the method:
as §4

T3 sequence (P03952 391-638 limits assumed): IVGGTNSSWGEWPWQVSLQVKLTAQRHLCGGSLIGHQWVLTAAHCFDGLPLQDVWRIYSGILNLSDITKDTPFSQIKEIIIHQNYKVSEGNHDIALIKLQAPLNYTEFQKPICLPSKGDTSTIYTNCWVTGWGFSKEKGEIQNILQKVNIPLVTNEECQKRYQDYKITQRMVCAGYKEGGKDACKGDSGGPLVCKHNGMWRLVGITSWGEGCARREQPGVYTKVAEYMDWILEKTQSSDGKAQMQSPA
T3 sequence (P03952 20-390 partner limits assumed): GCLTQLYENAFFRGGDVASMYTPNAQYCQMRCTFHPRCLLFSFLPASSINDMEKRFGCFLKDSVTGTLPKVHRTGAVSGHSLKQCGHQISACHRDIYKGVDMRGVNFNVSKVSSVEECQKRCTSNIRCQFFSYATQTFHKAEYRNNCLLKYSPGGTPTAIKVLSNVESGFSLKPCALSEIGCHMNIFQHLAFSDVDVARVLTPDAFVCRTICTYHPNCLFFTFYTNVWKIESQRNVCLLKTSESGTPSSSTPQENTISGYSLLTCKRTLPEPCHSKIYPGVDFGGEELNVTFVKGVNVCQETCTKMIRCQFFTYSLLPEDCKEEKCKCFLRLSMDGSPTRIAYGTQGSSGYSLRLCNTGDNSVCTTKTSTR
T7 sequence (P00743 234-492 limits assumed): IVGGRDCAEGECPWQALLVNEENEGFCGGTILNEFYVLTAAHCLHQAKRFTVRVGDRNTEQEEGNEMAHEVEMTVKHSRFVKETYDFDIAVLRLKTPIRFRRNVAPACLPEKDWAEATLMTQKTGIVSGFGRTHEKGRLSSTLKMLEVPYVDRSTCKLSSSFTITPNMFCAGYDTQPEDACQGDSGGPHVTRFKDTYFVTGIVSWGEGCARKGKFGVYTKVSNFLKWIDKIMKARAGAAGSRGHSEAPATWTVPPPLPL
T7 sequence (P00743 41-180 partner limits assumed): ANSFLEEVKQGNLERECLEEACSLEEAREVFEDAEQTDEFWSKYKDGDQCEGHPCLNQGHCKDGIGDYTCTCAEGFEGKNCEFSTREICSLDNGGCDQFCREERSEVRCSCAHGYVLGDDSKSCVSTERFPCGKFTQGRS

On to aprotinin(15 Val), for which, in the test with collagenase, the “Inhibition effect on collagenase (in words)” value is recorded as “inhibition effect on collagenase”. The “Effect on elastase (in words)” value on granulocyte elastase is “relatively high selectivity for granulocyte elastase”.
Turning to aprotinin(15Ala), the “Effect on elastase (in words)” value at granulocyte elastase was “only a weak inhibitory effect on elastase”.
Turning to aprotinin(15Gly), the “Antitrypsin activity (in words)” value at trypsin was “outstanding antitrypsin activity”. Also, the “Inhibition of kallikrein (in words)” value in the test with kallikrein was “surprisingly inhibits kallikrein”.
Take “Aprotinin (bovine pancreatic trypsin inhibitor, BPTI) [Native Aprotinin]”: the Ki (in general, a measure of affinity in units of concentration, obtained from inhibition or displacement) on Human plasma kallikrein (graphical Dixon method, substrate S2302, pH 7.4, 25° C.) worked out at 180 nM; in test [1], 400 nM. Besides, on Human plasma kallikrein (kallikrein 3 nM, aprotinin 0-20 nM, 30 minutes), the “Inhibition of plasma kallikrein (in words, FIGS. 5A and 5B)” value is recorded as “moderate inhibition”. For the same substance, the “Amidolytic activity of FIIa, inhibition” value in [2] is “-”. Further, in test [3], the “Amidolytic activity of FVIIa, inhibition” value was “-”. In addition, the “Amidolytic activity of FXa, inhibition” value at bovine factor Xa was “-”. Besides, the “Clot assays PTT” value in [4] is listed as “-”. Moreover, in test [5], the “Clot assays APTT” value is “-”.
